PubChem BioAssay (NCI)
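Grown in 96-well plates, cells were treated for 48 hours with each compound at five concentrations. Insufficient inhibition: endpoint recorded as highest concentration tested. GI50 is the concentration that inhibits growth by half. TGI: concentration producing complete growth inhibition.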

The compounds below were run on MCF7 breast (assay: DTP human tumour cell line panel, 48 h).
Compound Cc1cc(C2CCCCC2)n(O)c(=O)c1 has a GI50 of 3.01 µM and a TGI greater than 100 µM. CN(C)C(=S)SN(C)C(=O)Nc1ccccc1 was tested, and the TGI was greater than 47.1 µM.

The compounds below were run on DMS 114 small cell lung (assay: DTP human tumour cell line panel, 48 h).
In the case of CCCCCCCCCCCCCCCCOP(=O)(O)Oc1ccc(/C=C\c2ccc(OP(=O)(O)OCCCCCCCCCCCCCCCC)cc2)cc1, the TGI is reported as 49.4 µM. O=c1[nH]c(=O)n(C2CC(O)C(CS)O2)cc1F (stereo not drawn) showed a TGI greater than 100 µM. In the case of CCN(CC)C(=O)C/C(C)=N/NC(=O)c1ccncc1, the TGI is reported as greater than 100 µM. With CN(C)C(=S)/N=c1\ss/c(=N\C(=S)N(C)C)n1-c1ccc2c(c1)OCO2 the TGI was greater than 100 µM. For Cc1ccc(N=NC(C(=O)c2ccccc2)C(=O)c2ccccc2)cc1, the TGI was 54.7 µM. In the case of Cc1ccc(NC(=O)C2C(=O)N(c3ccc(C)c(C)c3)C(=O)/C2=N/O)cc1C (stereo not drawn), the TGI is reported as greater than 100 µM. Nc1c(-c2ccc(Br)cc2)[n+]([O-])c2ccccc2[n+]1[O-] showed a TGI greater than 100 µM. Compound CNC=O.[O]=[Ge].[O]=[Ge].[O]=[Ge].[O]=[Ge][OH].[O]=[Ge][OH] has a TGI greater than 100 µM. With N#CCCN(c1ccc(/C=C2\N=C(c3ccc(Cl)cc3)OC2=O)cc1)S(=O)(=O)c1ccccc1 the TGI was greater than 100 µM. In the case of Cc1cc(NS(=O)(=O)c2ccc(NC(=O)c3cccc4c(=O)c5ccccc5[nH]c34)cc2)no1, the TGI is reported as greater than 100 µM. O=C(/C=C/c1ccccc1Cl)c1ccccc1Cl showed a TGI of 34.8 µM. COC(=O)C1=C(c2ccc3c(c2)OCO3)O[C@H](c2ccc3c(c2)OCO3)[C@H]1COC(C)=O gave a TGI greater than 100 µM. Work on CC(C)=[CH][Sb]([Br])([CH]=C(C)C)([CH]=C(C)C)[CH]=C(C)C yielded a GI50 of 1.61 µM and a TGI of 4.85 µM. CCC1(O)C(=O)OCc2c1cc1n(c2=O)Cc2cc3c(N)cccc3nc2-1 (stereo not drawn) was tested, and the TGI was 0.504 µM. Compound CCOC(=O)[C@H]1Nc2ccc(C)cc2C2c3ccccc3CC21 (stereo partly drawn) has a TGI greater than 100 µM. Compound N#CCCN(CCC#N)c1ccc(/C=C2\N=C(CN3C(=O)c4ccccc4C3=O)OC2=O)cc1 has a TGI greater than 100 µM. Work on CSc1nc(NC2OC(COC(C)=O)C(OC(C)=O)C(OC(C)=O)C2OC(C)=O)c2c(OC(C)=O)c(C)c(=O)oc2n1 (stereo not drawn) yielded a TGI greater than 100 µM. O=C(NC1CCCCCC1)C1C(=O)N(C2CCCCCC2)C(=O)/C1=N\O (stereo not drawn) gave a TGI of 84.5 µM. COc1ccc(C(=O)O)c(Cc2cccc3ccccc23)c1 showed a TGI greater than 100 µM. In the case of CC#CC(=O)Nc1ccccc1CC(c1c[nH]c2ccccc12)c1c[nH]c2ccccc12, the TGI is reported as 29.9 µM. Compound NCCCNCCSSCCCCS(=O)O has a TGI greater than 100 µM. Work on Cc1cc(C2CCCCC2)n(O)c(=O)c1 yielded a TGI greater than 100 µM. COC(=O)C(=O)C(C(=O)C=C(C)C)C(=O)C(=O)Nc1ccc(Cl)cc1C (stereo not drawn) showed a TGI greater than 100 µM. Compound Cc1cccc(C(C)(C)C)c1NC(=O)CCc1n[nH]c(=S)o1 has a TGI greater than 100 µM. Compound CN(C)C(=S)SN(C)C(=O)Nc1ccccc1 has a TGI of 27.4 µM. In the case of Cc1ccc(C(=O)/C=C/c2ccccc2O)c(C)c1, the TGI is reported as greater than 100 µM. Compound O=S(O)CCCCSSCCCCSSCCCCS(=O)O has a TGI greater than 100 µM. Work on N#Cc1cnsc1 yielded a TGI greater than 100 µM. With CC(=O)SCCC1c2[nH]c3ccccc3c2CCN1O (stereo not drawn) the TGI was greater than 100 µM. CCOC(=O)NC(=O)c1cn(CCCOC(=O)NCCCCCCNC(=O)OCCCn2c(=O)c(C(=O)NC(=O)OCC)cn(C)c2=O)c(=O)n(C)c1=O gave a TGI greater than 100 µM. CC(C)=CC(=O)N1CCN(C(=O)C=C(C)C)CC1 gave a TGI greater than 100 µM. In the case of CC(=O)c1ccc(NC(=O)/C(Cc2ccccn2)=N/NC(=O)C[N+](C)(C)C)cc1, the TGI is reported as greater than 100 µM. CCc1cccc(C)c1NC(C)=O gave a TGI greater than 100 µM. In the case of O=C(CC(=O)N1N=C(c2ccccc2)C(N=Nc2ccc(Cl)cc2)C1=O)Nc1ccccc1Cl (stereo not drawn), the TGI is reported as greater than 100 µM.

The compounds below were run on M19-MEL melanoma (assay: DTP human tumour cell line panel, 48 h).
CCCCCCCCCCCCCCCCOP(=O)(O)Oc1ccc(/C=C\c2ccc(OP(=O)(O)OCCCCCCCCCCCCCCCC)cc2)cc1 showed a TGI greater than 100 µM. For O=c1[nH]c(=O)n(C2CC(O)C(CS)O2)cc1F (stereo not drawn), the TGI was greater than 100 µM. COC(=O)C(=O)C(C(=O)C(=O)Nc1ccc(C)cc1C)c1nc2ccccc2[nH]c1=O (stereo not drawn) gave a TGI greater than 100 µM. Cc1ccc(N=NC(C(=O)c2ccccc2)C(=O)c2ccccc2)cc1 showed a TGI of 41.2 µM. C#CC[C@]12CC(=O)CC[C@H]1CC(=O)C2 was tested, and the TGI was greater than 100 µM. With CNC=O.[O]=[Ge].[O]=[Ge].[O]=[Ge].[O]=[Ge][OH].[O]=[Ge][OH] the TGI was greater than 100 µM. Compound N#CCCN(c1ccc(/C=C2\N=C(c3ccc(Cl)cc3)OC2=O)cc1)S(=O)(=O)c1ccccc1 has a TGI greater than 100 µM. Cc1cc(NS(=O)(=O)c2ccc(NC(=O)c3cccc4c(=O)c5ccccc5[nH]c34)cc2)no1 showed a TGI greater than 100 µM. O=C(/C=C/c1ccccc1Cl)c1ccccc1Cl gave a TGI of 61 µM. For COC(=O)C1=C(c2ccc3c(c2)OCO3)O[C@H](c2ccc3c(c2)OCO3)[C@H]1COC(C)=O, the TGI was greater than 100 µM. In the case of CC(C)=[CH][Sb]([Br])([CH]=C(C)C)([CH]=C(C)C)[CH]=C(C)C, the GI50 is reported as 6.14 µM and the TGI is reported as greater than 100 µM. CCC1(O)C(=O)OCc2c1cc1n(c2=O)Cc2cc3c(N)cccc3nc2-1 (stereo not drawn) showed a TGI of 1.29 µM. For CCOC(=O)[C@H]1Nc2ccc(C)cc2C2c3ccccc3CC21 (stereo partly drawn), the TGI was greater than 100 µM. N#CCCN(CCC#N)c1ccc(/C=C2\N=C(CN3C(=O)c4ccccc4C3=O)OC2=O)cc1 showed a TGI greater than 100 µM. CSc1nc(NC2OC(COC(C)=O)C(OC(C)=O)C(OC(C)=O)C2OC(C)=O)c2c(OC(C)=O)c(C)c(=O)oc2n1 (stereo not drawn) showed a TGI greater than 100 µM. Compound O=C(NC1CCCCCC1)C1C(=O)N(C2CCCCCC2)C(=O)/C1=N\O (stereo not drawn) has a TGI of 75.6 µM. COc1ccc(C(=O)O)c(Cc2cccc3ccccc23)c1 gave a TGI greater than 100 µM. Compound CC#CC(=O)Nc1ccccc1CC(c1c[nH]c2ccccc12)c1c[nH]c2ccccc12 has a TGI of 31.2 µM. NCCCNCCSSCCCCS(=O)O gave a TGI of 40.5 µM. Cc1cc(C2CCCCC2)n(O)c(=O)c1 was tested, and the TGI was greater than 100 µM. In the case of COC(=O)C(=O)C(C(=O)C=C(C)C)C(=O)C(=O)Nc1ccc(Cl)cc1C (stereo not drawn), the TGI is reported as greater than 100 µM. For Cc1cccc(C(C)(C)C)c1NC(=O)CCc1n[nH]c(=S)o1, the TGI was greater than 100 µM. CN(C)C(=S)SN(C)C(=O)Nc1ccccc1 gave a TGI greater than 31.6 µM. Work on Cc1ccc(C(=O)/C=C/c2ccccc2O)c(C)c1 yielded a TGI of 3.07 µM.
